Experimental data as given in patent publication US10899710B2, “Pyridines and their use in the treatment of cancer” (The United States of America, as represented by the …, priority 2015, dated 2021).
pIC50: −log10 of the molar value. Counter-ions that a name gives are not always drawn.

Legend:
SF-539 = test: Growth inhibition GI50, SF-539; format: cell-based; conditions: Homo sapiens, CNS Cancer
Method: (§1) Cell lines were plated 2000 cells/well in 96-well black optical plates in the presence of 10% FBS media containing 25 nM selenite. The following day cells were treated with various concentrations of the compound of Example 1 (0.1% DMSO final) and incubated for 72 hrs. After the incubation Cell-Quanti Blue reagent was added to each well and incubated for additional 3 hrs. Fluorescence was read ex:530 nm/em:590 nm, and percent of viability was determined using DMSO vehicle and no cell (blank) controls.
(§2) Further results obtained in similar experiments were as indicated below (GI50 refers to concentration of compound yielding 50% growth inhibition; E denotes an exponent to the base 10).

U251 = test: Growth inhibition GI50, U251; format: cell-based; conditions: Homo sapiens, U-251, CNS Cancer
Method: as §1, §2

OVCAR-5 = test: Growth inhibition GI50, OVCAR-5; format: cell-based; conditions: Homo sapiens, Ovarian Cancer
Method: as §1, §2

UACC-257 = test: Growth inhibition GI50, UACC-257; format: cell-based; conditions: Homo sapiens, Melanoma
Method: as §1, §2

SK-OV-3 = test: Growth inhibition GI50, SK-OV-3; format: cell-based; conditions: Homo sapiens, Ovarian Cancer
Method: as §1, §2

SK-MEL-2 = test: Growth inhibition GI50, SK-MEL-2; format: cell-based; conditions: Homo sapiens, Melanoma
Method: as §1, §2

MDA-MB-231/ATCC = test: Growth inhibition GI50, MDA-MB-231/ATCC; format: cell-based; conditions: Homo sapiens, Breast Cancer
Method: as §1, §2

M14 = test: Growth inhibition GI50, M14; format: cell-based; conditions: Homo sapiens, Melanoma
Method: as §1, §2

A549/ATCC = test: Growth inhibition GI50, A549/ATCC; format: cell-based; conditions: Homo sapiens, Non-Small Cell Lung Cancer
Method: as §1, §2

HCT-15 = test: Growth inhibition GI50, HCT-15; format: cell-based; conditions: Homo sapiens, Colon Cancer
Method: as §1, §2

MDA-MB-435 = test: Growth inhibition GI50, MDA-MB-435; format: cell-based; conditions: Homo sapiens, Melanoma
Method: as §1, §2

HCC-2998 = test: Growth inhibition GI50, HCC-2998; format: cell-based; conditions: Homo sapiens, Colon Cancer
Method: as §1, §2

UACC-62 = test: Growth inhibition GI50, UACC-62; format: cell-based; conditions: Homo sapiens, Melanoma
Method: as §1, §2

NCI-H226 = test: Growth inhibition GI50, NCI-H226; format: cell-based; conditions: Homo sapiens, Non-Small Cell Lung Cancer
Method: as §1, §2

K-562 = test: Growth inhibition GI50, K-562; format: cell-based; conditions: Homo sapiens, K562, Leukemia
Method: as §1, §2

ACHN = test: Growth inhibition GI50, ACHN; format: cell-based; conditions: Homo sapiens, Renal Cancer
Method: as §1, §2

SN12C = test: Growth inhibition GI50, SN12C; format: cell-based; conditions: Homo sapiens, Renal Cancer
Method: as §1, §2

MOLT-4 = test: Growth inhibition GI50, MOLT-4; format: cell-based; conditions: Homo sapiens, Leukemia
Method: as §1, §2

SNB-19 = test: Growth inhibition GI50, SNB-19; format: cell-based; conditions: Homo sapiens, CNS Cancer
Method: as §1, §2

HOP-62 = test: Growth inhibition GI50, HOP-62; format: cell-based; conditions: Homo sapiens, Non-Small Cell Lung Cancer
Method: as §1, §2

TK-10 = test: Growth inhibition GI50, TK-10; format: cell-based; conditions: Homo sapiens, Renal Cancer
Method: as §1, §2

PC-3 = test: Growth inhibition GI50, PC-3; format: cell-based; conditions: Homo sapiens, Prostate Cancer
Method: as §1, §2

NCI-H522 = test: Growth inhibition GI50, NCI-H522; format: cell-based; conditions: Homo sapiens, Non-Small Cell Lung Cancer
Method: as §1, §2

SW-620 = test: Growth inhibition GI50, SW-620; format: cell-based; conditions: Homo sapiens, Colon Cancer
Method: as §1, §2

[1] = target: T1, gluthathione reductase (GR) (Homo sapiens, UniProt P00390); test: Inhibition of recombinant GR (GSSG assay); format: biochemical
T1 sequence (P00390 44-522): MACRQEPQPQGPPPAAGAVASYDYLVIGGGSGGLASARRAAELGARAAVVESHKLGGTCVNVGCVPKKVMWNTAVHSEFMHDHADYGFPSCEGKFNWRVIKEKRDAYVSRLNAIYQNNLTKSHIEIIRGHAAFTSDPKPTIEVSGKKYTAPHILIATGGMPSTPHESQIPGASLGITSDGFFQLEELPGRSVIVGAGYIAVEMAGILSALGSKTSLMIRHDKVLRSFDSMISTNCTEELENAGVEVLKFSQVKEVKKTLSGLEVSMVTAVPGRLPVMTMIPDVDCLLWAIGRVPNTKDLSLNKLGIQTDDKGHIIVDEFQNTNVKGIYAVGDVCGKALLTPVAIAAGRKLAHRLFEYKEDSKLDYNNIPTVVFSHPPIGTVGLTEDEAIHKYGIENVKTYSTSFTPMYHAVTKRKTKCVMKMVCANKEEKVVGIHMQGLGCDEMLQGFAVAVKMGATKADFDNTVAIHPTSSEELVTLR
Method: Small molecule inhibition of recombinant thioredoxin reductase 1 (TrxR1) and gluthathione reductase (GR) was examined in 96-well plate format. 15 nM TrxR1 was incubated in the presence of 250 μM NADPH, 0.1 mg/ml BSA, and various concentrations of the compound of Example 1 (1% DMSO final) in 50 mM Tris (pH 7.5) and 2 mM EDTA buffer for 15 minutes. Following the incubation period, 2.5 mM DTNB was added to each well and the change in O.D. at 412 nm was followed. Percent activity was determined using DMSO vehicle and no TrxR1 (blank) controls. 2 nM GR was incubated in the presence of 250 μM NADPH, 0.1 mg/ml BSA, and various concentrations of compounds (1% DMSO final) in 50 mM Tris (pH 7.5) and 2 mM EDTA buffer for 15 minutes. Following the incubation period, 1 mM GSSG was added to each well and the change in O.D. at 340 nm was followed. Percent activity was determined using DMSO vehicle and no GR (blank) controls.

CCRF-CEM = test: Growth inhibition GI50, CCRF-CEM; format: cell-based; conditions: Homo sapiens, Leukemia
Method: as §1, §2

DU-145 = test: Growth inhibition GI50, DU-145; format: cell-based; conditions: Homo sapiens, Prostate Cancer
Method: as §1, §2

FaDu cell line = test: Cell viability inhibition, FaDu cell line; format: cell-based; conditions: Homo sapiens, Biological Example 4, 72 hrs
Method: as §1
Using the assays described in Biological Example 1 to assess inhibition of recombinant TrxR1 and GR, the following IC50 values were obtained for the examples described herein. Further, following the protocol described in Biological Example 2, the following IC50 values were obtained for inhibition of cell viability using the FaDu cell line.

MDA-MB-468 = test: Growth inhibition GI50, MDA-MB-468; format: cell-based; conditions: Homo sapiens, Breast Cancer
Method: as §1, §2

OVCAR-3 = test: Growth inhibition GI50, OVCAR-3; format: cell-based; conditions: Homo sapiens, Ovarian Cancer
Method: as §1, §2

COc1ccc([N+](=O)[O-])c(S(=O)(=O)c2ccc(Cl)cc2)n1 [Example 1, 2-((4-Chlorophenyl)sulphonyl)-6-methoxy-3-nitropyridine Hydrochloride]
GI50 (SF-539): 3.39 µM
GI50 (U251): 8.69 µM
GI50 (OVCAR-5): 3.13 µM
GI50 (UACC-257): 11.3 µM
GI50 (SK-OV-3): 15.1 µM
GI50 (SK-MEL-2): 11.4 µM
GI50 (MDA-MB-231/ATCC): 2.83 µM
GI50 (M14): 3.05 µM
GI50 (A549/ATCC): 18.5 µM
GI50 (HCT-15): 2.05 µM
GI50 (MDA-MB-435): 1.75 µM
GI50 (HCC-2998): 8.38 µM
GI50 (UACC-62): 3.56 µM
GI50 (NCI-H226): 10.2 µM
GI50 (K-562): 3.02 µM
GI50 (ACHN): 2.08 µM
GI50 (SN12C): 3.82 µM
GI50 (MOLT-4): 3.59 µM
GI50 (SNB-19): 13 µM
GI50 (HOP-62): 16.6 µM
GI50 (TK-10): 3.57 µM
GI50 (PC-3): 17.3 µM
GI50 (NCI-H522): 1.86 µM
GI50 (SW-620): 2.06 µM
pIC50 ([1]; Biological Example 1, 2 nM GR, 15 minutes incubation): < 4.00
pIC50 ([1]; Biological Example 4): < 4.00
GI50 (CCRF-CEM): 2.93 µM
GI50 (DU-145): 9.63 µM
pIC50 (FaDu cell line): 5.52
GI50 (MDA-MB-468): 1.93 µM
GI50 (OVCAR-3): 2.33 µM
